Data: patent publication US20040171073A1, “Compounds for modulation of cholesterol transport” (Massachusetts Institute of Technology, priority 2002, published 2004)
Entries after “also recorded” stand apart in the source; their conditions may differ.

Legend:
[1] = molecular target: T1, murine SR-BI (Mus musculus, UniProt Q61009); assay: Efflux of [3H]cholesterol from ldlA[mSR-BI] cells to HDL; assay type: cell-based; details: for EC50: inhibition of efflux to HDL, mean ± SD, n=3
T1 construct: expressed in transfected cells; host or cells: ldlA-7 (LDL receptor deficient Chinese hamster ovary cells)
T1 sequence (Q61009 1-509): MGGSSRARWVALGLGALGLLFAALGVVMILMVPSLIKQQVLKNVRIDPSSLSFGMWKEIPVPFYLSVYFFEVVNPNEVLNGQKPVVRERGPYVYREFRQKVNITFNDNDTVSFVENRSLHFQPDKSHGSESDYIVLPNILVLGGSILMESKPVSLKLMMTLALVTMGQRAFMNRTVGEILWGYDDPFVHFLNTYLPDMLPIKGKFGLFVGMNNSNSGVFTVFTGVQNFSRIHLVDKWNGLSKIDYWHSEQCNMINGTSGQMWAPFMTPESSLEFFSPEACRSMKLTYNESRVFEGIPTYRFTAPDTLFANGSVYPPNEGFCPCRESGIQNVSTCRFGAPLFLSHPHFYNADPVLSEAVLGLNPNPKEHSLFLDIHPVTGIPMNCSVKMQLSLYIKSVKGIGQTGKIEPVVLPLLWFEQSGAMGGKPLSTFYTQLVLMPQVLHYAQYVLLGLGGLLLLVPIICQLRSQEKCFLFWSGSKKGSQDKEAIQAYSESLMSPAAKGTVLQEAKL
Protocol: (§1) Cells were pre-incubated with BLTs for 1 hr (or 2.5 hrs for transferrin, EGF and cholera toxin uptake experiments) and all the experiments were performed at 37° C. Detailed characterization of the BLTs and their effects was performed with compounds whose identities and purities were confirmed by LC-MS.
(§2) Assays for the uptake of lipids from DiI-HDL and [^3]CE-HDL, efflux of [^3H]cholesterol from labeled cells, and ^125I-HDL binding were performed as described by Acton et al. Science (1996) January 26;271(5248):518-20; Gu, et al. J Biol. Chem. (2000) September 29;275(39):29993-30001; and Ji, et al., J. Biol. Chem. (1997) 272, 20982-5. In some experiments, values were normalized so that the 100% of control represents activity in the absence of compounds and 0% represents activity determined in the presence of a 40-fold excess of unlabeled HDL or, for Y1-BS1 cells, in the presence of a 1:500 dilution of the KKB-1 blocking antibody (Gu, et al., 2000, generous gift from Karen Kozarsky). The amounts of cell-associated [^3H]cholesteryl ether are expressed as the equivalent amount of [^3H]CE-HDL protein (ng) to permit direct comparison of the relative amounts of ^125I-HDL binding and [^3H]CE uptake.
In addition to mediating selective lipid uptake from HDL, SR-BI can facilitate the efflux of unesterified cholesterol from cells to HDL particles (Jian, et al. (1998) J Biol Chem 273, 5599-606. Ji, et al. (1997) J. Biol. Chem. 272, 20982-5). To determine if the BLTs could inhibit this SR-BI-mediated lipid transport activity, cells were labeled with [^3H]cholesterol and its efflux to unlabeled HDL measured in the presence or absence of the BLTs. (FIG. 2C, table II). Cells were incubated for 3 hrs in the absence (top panels) or presence (bottom panels) of 50 micromolar BLT-1 (MIT 9952-53) and epifluorescence light microscopy was used to monitor the following cellular activities: clathrin-dependent endocytosis of fluorescently labeled transferrin (A,B; HeLa cells) and EGF (C,D; HeLa cells); clathrin-independent endocytosis of fluorescently labeled cholera toxin (E, F; BSC-1 cells), and transport of the temperature sensitive fluorescent membrane protein VSVG^ts045-EGFP from the ER to the cell surface (G,H; BSC-1 cells). In addition, the intracellular distributions of the actin cytoskeleton (visualized with rhodamine labeled phalloidin, I,J; ldlA-[mSRBI] cells) and the tubulin network (visualized with fluorescently labeled antibodies specific to y-tubulin, K,L; BSC-1 cells) were determined. BLT-1 (MIT 9952-53) and the other BLTs (not shown) had no effects on any of these cellular properties or activities.

[2] = molecular target: T1, murine SR-BI; assay: Uptake of [3H]cholesteryl ether from [3H]CE-HDL by ldlA[mSR-BI] cells; assay type: cell-based; details: for EC50: inhibition, mean ± SD, n=6 (n=5 where footnoted), read-out: (A) EC50 [^3H]CEt HDL uptake
Protocol: as §1, §2

[3] = molecular target: T1, murine SR-BI; assay: Uptake of DiI from DiI-HDL by ldlA[mSR-BI] cells (high throughput screen and concentration dependence); assay type: cell-based; details: for EC50 / Inhibition of SR-BI-mediated lipid transport / DiI uptake, concentration range in words: ldlA[mSR-BI] cells; for EC50: inhibition, mean ± SD, n=3
[4] = molecular target: T1, murine SR-BI; assay: Rate of 125I-HDL dissociation from cells; details: dissociation of 125I-HDL from ldlA[mSR-BI] cells in presence of BLT; no BLT control 0.11; n=2; read-out: (B) Binding Parameters Koff (converted)
Protocol: The rates of HDL dissociation from cells were determined by incubation of the cells with ^125I-HDL (10 μg protein/ml, 2 hrs, 37° C.) with and without BLTs. The medium was then either replaced with the same medium in which the ^125I-HDL was substituted by a 40-fold excess of unlabeled HDL or a 40-fold excess of unlabeled HDL was added to the labeled incubation medium. The amounts of cell-associated ^125I-HDL were then determined as a function of time. The two methods gave similar results.

[5] = molecular target: T1, murine SR-BI; assay: 125I-HDL binding to ldlA[mSR-BI] cells; details: for (B) Binding Parameters Bmax: 125I-HDL binding sites in presence of BLT at its ICCE95, no BLT control 100.0 ± 18.4; for Effect on HDL binding to SR-BI / EC50: ldlA[mSR-BI] cells; for EC50: enhancement of HDL binding, 10 μg protein/ml HDL, mean ± SD, n=3, read-out: (A) EC50 ^1nI-HDL binding
Protocol: as §1, §2
It was initially expected that the BLTs would function by inhibiting HDL binding to SR-BI. However, when cells were incubated with a sub-saturating concentration of either [^3H]CE-HDL or ^125I-labeled HDL (^125I-HDL) (10 μg protein/ml) and increasing amounts of compound (FIG. 5), the decreases in [^3H]CE uptake (solid lines, no symbols, data from FIG. 2B) and [3H]cholesterol efflux (dashed lines, data from FIG. 2C) were accompanied by corresponding increases in ^125I-HDL binding (solid lines, square symbols). The concentration dependence of ^125I-HDL binding was determined in the presence or absence of BLTs at their ICCE95 concentrations (FIG. 6 and Table II).

[6] = molecular target: T2, SR-BI (Mus musculus, UniProt Q61009); assay: Uptake of [3H]CE from [3H]CE-HDL by Y1-BS1 adrenocortical cells; assay type: cell-based, murine; details: inhibition, n=2, read-out: (A) EC50 [^3H]CEt HDL uptake (Y1-BS1 cells)
T2 construct: endogenous in cells; host or cells: Y1-BS1 murine adrenocortical cells (ACTH induced)
T2 sequence (Q61009 1-509): T1 sequence (Q61009 1-509)
Excerpt: Biol. Chem. 273, 26338-48; Gu, et al. (2000) J. Biol. Chem. 275, 29993-30001; Acton, et al. (1994) J. Biol. Chem. 269, 21003-9; Pitas, et al. (1981) Arteriosclerosis 1, 177-85). LDL receptor deficient Chinese hamster ovary cells that express low levels of endogenous SR-BI, ldlA-7 (Kingsley, et al. (1984) Proc. Nat. Acad. Sci. USA 81, 5454-8), ldlA-7 cells stably transfected to express high levels of murine SR-BI (ldlA[mSR-BI])(Acton, et al., 1996), Y1-BS1 murine adrenocortical cells that express high levels of SR-BI after induction with ACTH (Rigotti, et al. (1996) J. Biol. Chem. 271, 33545-9), monkey kidney BS-C1 cells (Kapoor, et al. (2000) Journal of Cell Biology 150, 975-88) and HeLa cells (Temel, et al. (2002) J Biol Chem 8, 8) were maintained as previously described.
as §1, §2

[7] = system: HeLa cells; assay: Receptor mediated endocytosis of labeled transferrin and EGF, fluorescence microscopy; assay type: cell-based; details: BLTs at ICCE95, 50 micromolar BLT-1, 3 hrs
[8] = system: BSC-1 cells; assay type: cell-based, monkey; details: BLTs at ICCE95, 50 micromolar BLT-1, 3 hrs
[9] = system: ldlA[mSR-BI] cells; assay: Distribution of actin and tubulin networks, fluorescence microscopy; assay type: cell-based, Chinese hamster; details: BLTs at ICCE95; 50 micromolar BLT-1, 3 hrs
[10] = system: BSC-1 cells; assay type: cell-based, monkey

Compound | ICFC50 for efflux compared with that for uptake [1] | EC50 [1] [nM] | ICCE95 concentration (inhibits [3H]CE uptake by 95%) [2] [µM] | EC50 [2] [nM] | ENDOHDL Test 1 [3] | ENDOHDL Test 2 [3] | EC50 [3] [nM] | koff [4] [s⁻¹] | (B) Binding Parameters Bmax [5] [%] | Effect on HDL binding to SR-BI [5] | EC50 [5] [nM] | EC50 [6] [nM] | Uptake and intracellular distribution of labeled transferrin and EGF (clathrin-dependent endocytosis) [7] | Uptake of labeled cholera toxin (clathrin-independent endocytosis) [8] | Integrity/distribution of actin and tubulin networks [9] | Inhibition of SR-BI-mediated lipid transport / DiI uptake, concentration range in words ([3]; listed as BLT-1) | Secretory pathway: transport of VSVGts045-EGFP from ER to cell surface [10] | Inhibition of SR-BI-mediated lipid transport / DiI uptake, concentration range in words [3]
C/C(=N\NC(=O)c1ccccc1I)c1ccc(N)cc1 [MIT 9952-6] | higher | 75300 ± 40100 | 50 | 13800 | 0.52 | 0.54 | 7100 ± 3700 | 0.00132 | 92.1 ± 36.8 | enhanced | 18000 ± 3700 | 8000 |  |  |  |  |  | 
c1ccc(-c2noc(-c3ccccc3)c3cccc2-3)cc1 [MIT 9952-19] | higher | 17200 ± 4000 | 50 | 2300 ± 1500 |  |  | 510 ± 150 | 0.00133 | 85.8 ± 15.8 | enhanced | 46500 ± 49300 | 1700 |  |  |  |  |  | 
COc1ccccc1NC(=O)Nc1ccc2ccccc2c1 [MIT 9952-29] | higher | 54900 ± 35200 | 50 | 3900 |  |  | 2000 ± 1000 | 0.00137 | 79.9 ± 15.9 | enhanced | 24900 ± 14800 | 4400 |  |  |  |  |  | 
CCCCCCC1CCC/C1=N\NC(N)=S (stereo not drawn) [MIT 9952-53] |  | 150 ± 90 | 1 | 110 ± 80 | 0.53 | 0.46 | 60 ± 40 | 0.001 | 95.8 ± 10.1 | enhanced | 88 ± 50 | 380 | no effects | no effects | no effects | low nanomolar concentration range; also recorded: inhibited in the nanomolar range | no effects | 
CCCCOCCC1CCC/C1=N\NC(N)=S (stereo not drawn) [MIT 9952-61] |  | 470 ± 230 | 1 | 240 ± 100 | 0.7 | 0.57 | 350 ± 180 | 0.00103 | 93.0 ± 20.5 | enhanced | 250 ± 130 | 410 |  |  |  |  |  | inhibited in the nanomolar range
